In one data set the test system is CYP3A. The experiment in a line: CYP Induction (CYP3A activity in cryopreserved hepatocytes, P450-Glo CYP3A4 assay). Particulars: % of positive control (inducibility by 10 μmol/L rifampicin = 100%); hepatocytes treated 3 days. The class given is in vitro ADME. As for the experimental part: Cryopreserved hepatocytes were thawed in a culture medium (In VitroGRO™ CP Medium, Celsis In Vitro Technologies, U.S.A.), and the resultant was added to BioCoat™ Matrigel® Matrix Thin-Layer 96 well (Becton, Dickinson and Company, U.S.A.) at a concentration of 40,000 cells/well. After culturing for 24 hours, the culture medium was removed, and replaced with an incubation medium (In VitroGRO™, HI Medium with Torpedo Antibiotic Mix, Celsis In Vitro Technologies, U.S.A.). Cells were cultured for an additional 3 days. The medium was removed on day 4, and the remained cells were treated in the induction medium containing a test compound for 3 days in the presence or absence of 10 μmol/L rifampicin. The induction medium was replaced every day. The test compound addition wells in the presence of 10 μmol/L rifampicin were used to evaluate the inhibitory effect of the test compound on the inducibility of the CYP3A activity by rifampicin. The CYP3A activity was evaluated by measuring luciferin generating amount after the addition of 2 μmol/L luciferin-IPA using IPA P450-Glo™ CYP3A4 assay systems (Promega Corporation, U.S.A.). All cultures were carried out under a humidified environment at 37° C., 5% CO2. The inducibility by rifampicin was defines as 100%, and the inducibility of the test compound (% of positive control) was calculated from the following equation: [(luciferin fluorescence intensity in the absence of rifampicin and the presence of test compound)−(luciferin fluorescence intensity in the absence of rifampicin and test compound)/(luciferin fluorescence intensity in the presence of rifampicin and the absence of test compound)−(Luciferin fluorescence intensity in the absence of rifampicin and test compound)]×100.

The target of a further data set is T1, CYP3A4 (Homo sapiens, UniProt P08684).
T1 construct: Human liver microsomes purchased from XenoTech, LLC (Lenexa, Kans.) was used; tissue XenoTech, LLC; host or cells: human liver microsomes
T1 sequence (P08684 whole entry): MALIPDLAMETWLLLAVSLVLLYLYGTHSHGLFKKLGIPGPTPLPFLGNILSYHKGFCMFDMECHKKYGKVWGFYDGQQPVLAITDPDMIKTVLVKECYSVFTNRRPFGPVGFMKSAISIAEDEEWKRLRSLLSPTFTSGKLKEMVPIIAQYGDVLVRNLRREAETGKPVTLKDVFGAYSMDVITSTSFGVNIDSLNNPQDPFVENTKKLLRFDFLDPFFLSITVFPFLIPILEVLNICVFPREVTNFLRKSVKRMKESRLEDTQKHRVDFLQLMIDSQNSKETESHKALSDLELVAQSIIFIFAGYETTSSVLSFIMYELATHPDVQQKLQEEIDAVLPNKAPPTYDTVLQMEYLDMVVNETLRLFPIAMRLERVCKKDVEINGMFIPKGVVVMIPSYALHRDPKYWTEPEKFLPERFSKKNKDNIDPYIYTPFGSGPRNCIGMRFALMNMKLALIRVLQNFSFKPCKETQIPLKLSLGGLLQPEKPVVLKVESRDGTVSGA
The experiment in a line: CYP3A4 TDI (human liver microsomes, testosterone 6β-hydroxylation). It is filed as in vitro ADME. Particulars: test compound 30 μM, 60 min vs 0 min preincubation with NADPH, 37° C. The method, then:
Human liver microsomes purchased from XenoTech, LLC (Lenexa, Kans.) was used. Test compounds were dissolved in acetonitrile, acetonitrile/methanol (1:1, v/v) or DMSO/acetonitrile (1:4, v/v). To a human liver microsomes solution adjusted with phosphate buffer (pH 7.4), the test compound solution was added to obtain a human liver microsomes reaction solution having the test compound concentration of 30 μM. To the human liver microsome reaction solution, NADPH production system was added, and the mixture was preincubated at 37° C. for 0 minutes or 60 minutes. After the preincubation, probe substrate testosterone was added, and testosterone metabolite 6β-hydroxytestosterone was analyzed by LC/MS/MS to evaluate CYP3A4 enzymatic activity.
The enzyme activity (% of control) at each preincubation point was calculated from the following equation: % of control=[(activity of test compound addition group)/(activity of test compound non-addition group)]×100.
The remaining activity (% remaining) after 60 minutes of preincubation was calculated from the following equation: Remaining activity (%)=[activity after 60 minutes (% of control60 min)]/[activity after 0 minutes (% of control0 min)]×100.

A further data set deals with T2, human CaSR (Homo sapiens, UniProt P41180).
T2 construct: expressed in transfected cells; host or cells: CHO cells
T2 sequence (P41180 20-1078): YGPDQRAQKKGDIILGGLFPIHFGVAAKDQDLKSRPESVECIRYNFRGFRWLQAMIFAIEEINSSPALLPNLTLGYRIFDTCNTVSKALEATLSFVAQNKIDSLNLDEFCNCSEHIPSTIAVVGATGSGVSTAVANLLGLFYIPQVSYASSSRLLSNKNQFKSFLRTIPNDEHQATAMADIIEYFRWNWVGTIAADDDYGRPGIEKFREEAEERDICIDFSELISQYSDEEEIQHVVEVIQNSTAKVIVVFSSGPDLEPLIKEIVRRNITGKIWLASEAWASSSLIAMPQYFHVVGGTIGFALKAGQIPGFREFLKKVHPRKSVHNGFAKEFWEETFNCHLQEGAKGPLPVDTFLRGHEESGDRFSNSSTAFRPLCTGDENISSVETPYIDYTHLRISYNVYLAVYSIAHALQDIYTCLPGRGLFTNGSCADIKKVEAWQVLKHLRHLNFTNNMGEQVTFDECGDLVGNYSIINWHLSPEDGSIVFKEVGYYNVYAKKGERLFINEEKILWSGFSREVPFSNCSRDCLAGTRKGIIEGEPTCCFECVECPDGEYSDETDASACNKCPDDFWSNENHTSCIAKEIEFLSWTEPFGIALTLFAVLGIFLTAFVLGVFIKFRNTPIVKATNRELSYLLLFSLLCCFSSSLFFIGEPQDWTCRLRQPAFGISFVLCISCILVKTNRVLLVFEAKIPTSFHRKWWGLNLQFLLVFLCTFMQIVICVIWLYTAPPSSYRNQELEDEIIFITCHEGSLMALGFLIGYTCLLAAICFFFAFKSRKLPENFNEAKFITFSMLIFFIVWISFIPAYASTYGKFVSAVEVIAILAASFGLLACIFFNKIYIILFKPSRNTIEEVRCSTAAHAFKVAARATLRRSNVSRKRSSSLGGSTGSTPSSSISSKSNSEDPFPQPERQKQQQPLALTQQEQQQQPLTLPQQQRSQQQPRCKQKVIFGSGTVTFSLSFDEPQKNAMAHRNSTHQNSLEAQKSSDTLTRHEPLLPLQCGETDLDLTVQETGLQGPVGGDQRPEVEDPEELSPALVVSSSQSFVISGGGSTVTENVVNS
The experiment in a line: Human CaSR Antagonist Activity (CHO cells, NFAT-Luciferase reporter). It is filed as cell-based. The following applies: 3.3 μm test compound, CaCl2 final 1.3 mM, 100% = reference carboxamide at 10 μM; for inhibition at 3.3 µM: CHO, 2 h, read-out: Inhibition rate (%) at 3.3 μm. The method, then: CaSR antagonist activity measurement was performed using Bright-Glo Luciferase assay system (Promega Corporation). CHO cells in which human CaSR and NFAT-Luciferase reporter gene were forcibly expressed were suspended in MEM alpha (Wako Pure Chemical Industries, Ltd.) containing 10% dialyzed serum (HyClone). The cells in suspension was seeded in 384-well white plate (Corning) at 10,000/20 μL/well, and cultured in an incubator of 37° C., 5% CO2 for one day. A diluent of Test compound was prepared with assay buffer (MEM alpha containing 10 mM HEPES (Life Technologies) and 10% dialysis serum). The diluent was added to the plate at 5 μL/well and allowed to stand at 37° C. for 10 minutes. Further, a diluent of 7.8 mM CaCl2 prepared with assay buffer (final concentration 1.3 mM) was added at 5 μl/well and allowed to stand in an incubator of 37° C., 5% CO2 for 2 hours. Bright-Glo reagents (Promega Corporation) were added at 10 μL/well, and the obtained mixture was stirred for 5 minutes, and then luminescence intensity was measured using Multi-label reader Envision (PerkinElmer, Inc.). The activity (%) of the test compound was calculated with the definitions in which the luminescence intensity when DMSO is added in place of the test compound is defined as 0% inhibition; and the luminescence intensity when (5R)—N-(1-ethyl-1-(4-ethylphenyl)propyl)-2,7,7-trimethyl-5-phenyl-4,5,6,7-tetrahydropyrazolo[1,5-a]Pyrimidine-3-carboxamide at final concentration of 10 μM is added is defined as 100% inhibition.
For orientation: Reporter assays use an easily measured gene product as a stand-in for the process of interest.

Data set [1] concerns aortic banding (TAC) models. The following applies: cited from earlier work.
For data set [2] the following is noted: dosing after cardiac loading; cited from earlier work.
Data set [3] deals with monocrotaline (MCT)-induced pulmonary hypertension rats. Particulars: cited from earlier work.
For data set [4], the system named is hypoxia-induced pulmonary hypertension (HPH) mice. The following applies: cited from earlier work.

As a reminder, the inhibition is the drop in the measured response relative to a control, in per cent. Take `CC1(C)C[C@H](c2ccccc2)Nc2c(C(=O)N3CC4CC4(c4cc(Cl)cc(C(F)(F)F)c4)C3)cnn21` (single isomer, unassigned) [Example 9]: the “Inducibility (%)” value in the data set on CYP3A came to 9.0%. In addition, at CYP3A4, the “Remaining Activity (%)” value came out at 86.4%. For the same molecule, the inhibition at 3.3 µM on human CaSR was 96%.

On to `C[C@@H](N[C@H]1CCCC[C@@H]1NC(=O)c1ccc(Cl)cc1)c1cccc2ccccc12` [Calhex231], for which, in data set [1], the cardiac hypertrophy result is on record as “improves cardiac hypertrophy”. Also, in data set [2], the cardiac hypofunction result is “fails to improve cardiac hypofunction”.

Take `CC(C)(Cc1ccc2ccccc2c1)NC[C@@H](O)COc1cccc(Cl)c1C#N` [NPS-2143]: the “cardiac hypertrophy, elevated right ventricular systolic pressure, fibrosis of cardiac muscle tissue, pulmonary vascular remodeling” value in data set [3] and in data set [4] was “suppressed” in each case.

With `CC1(C)C[C@H](c2ccccc2)Nc2c(C(=O)N3CC4CC4(c4ccc(C(F)(F)F)cc4)C3)cnn21` (single isomer, unassigned) [Example 7], the “Inducibility (%)” value with CYP3A worked out at 2.3%. The “Remaining Activity (%)” value at CYP3A4 turned out to be 78.1%. In addition, the inhibition at 3.3 µM on human CaSR was 97%.

With `CC1(C)C[C@H](c2ccccc2)Nc2c(C(=O)N3CC4CC4(c4ccc(C(F)(F)F)c(Cl)c4)C3)cnn21` (single isomer, unassigned) [Example 11], the “Inducibility (%)” value with CYP3A stood at 1.2%. Moreover, the “Remaining Activity (%)” value on CYP3A4 amounted to 97.7%. Also, the inhibition at 3.3 µM on human CaSR was 99%.

Regarding `CC1(C)C[C@H](c2ccccc2)Nc2c(C(=O)N3CC4CC4(c4ccc(Cl)c(C(F)(F)F)c4)C3)cnn21` (single isomer, unassigned) [Example 13], in the data set on CYP3A, the “Inducibility (%)” value is 16.7%. Besides, the “Remaining Activity (%)” value on CYP3A4 was 81.8%. Moreover, the inhibition at 3.3 µM on human CaSR was found to be 101%.

As to `CC1(C)C[C@H](c2ccccc2)Nc2c(C(=O)N3CC4CC4(c4cc(Cl)cc(Cl)c4)C3)cnn21` (single isomer, unassigned) [Example 4], in the data set on CYP3A, the “Inducibility (%)” value turned out to be 10.7%. For the same molecule, the “Remaining Activity (%)” value on CYP3A4 is on record as 87.0%. Also, the inhibition at 3.3 µM on human CaSR came to 100%.

For `CC1(C)C[C@H](c2ccccc2)Nc2c(C(=O)N3CC4CC4(c4ccc(C(F)(F)F)cc4F)C3)cnn21` (stereo partly drawn) [Example 28, ((5R)-7,7-Dimethyl-5-phenyl-4,5,6,7-tetrahydropyrazolo[1,5-a]pyrimidin-3-yl)(1-(2-fluoro-4-(trifluoromethyl)phenyl)-3-azabicyclo[3.1.0]hex-3-yl)methanone], the “Inhibition rate (%) at 3.3 μm” value at human CaSR came to 101%.

The record behind these values is patent US10919891B2, “Heterocyclic compound” (TAKEDA PHARMACEUTICAL COMPANY LIMITED, priority 2017, dated 2021).
